According to ChEMBL document CHEMBL5729761, “Polycyclic compounds as allosteric SHP2 inhibitors” (2023):

Target: T1, Tyrosine-protein phosphatase non-receptor type 11 (Homo sapiens, UniProt Q06124)
T1 sequence (Q06124 whole entry): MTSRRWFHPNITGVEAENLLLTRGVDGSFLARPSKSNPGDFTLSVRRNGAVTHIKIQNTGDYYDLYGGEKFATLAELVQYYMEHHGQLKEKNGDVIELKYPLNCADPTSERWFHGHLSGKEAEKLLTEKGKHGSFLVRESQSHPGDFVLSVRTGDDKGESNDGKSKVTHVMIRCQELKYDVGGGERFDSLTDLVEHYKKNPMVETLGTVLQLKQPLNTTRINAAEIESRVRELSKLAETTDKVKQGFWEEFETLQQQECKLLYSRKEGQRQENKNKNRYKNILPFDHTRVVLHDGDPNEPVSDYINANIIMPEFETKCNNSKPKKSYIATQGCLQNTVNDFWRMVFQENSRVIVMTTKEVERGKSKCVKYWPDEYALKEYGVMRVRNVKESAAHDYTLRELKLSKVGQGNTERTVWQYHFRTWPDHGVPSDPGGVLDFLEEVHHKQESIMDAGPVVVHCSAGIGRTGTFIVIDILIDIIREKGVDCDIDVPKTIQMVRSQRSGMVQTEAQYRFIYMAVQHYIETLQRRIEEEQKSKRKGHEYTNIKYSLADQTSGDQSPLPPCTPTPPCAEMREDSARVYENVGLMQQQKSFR
Assay: SHP2 Allosteric Inhibition Assay: The inhibition of SHP2 by compounds of the invention (concentrations varying from 0.00005-10 μM) was monitored using an assay in which 0.2 nM of SHP2 was incubated with 0.5 μM of Activating Peptide 1 (sequence: H2N LN(pY)IDLDLV(dPEG8)LST(pY)ASINFQK-amide) or Activating Peptide 2 (sequence: H2N-LN(pY)AQLWHA(dPEG8)LTI(pY)ATIRRF-amide). After 30-60-minutes incubation at 25° C., the surrogate substrate DiFMUP (Invitrogen, Cat #D6567) was added to the reaction and activity was determined by a kinetic read using a microplate reader (Envision, Perkin-Elmer or Spectramax M5, Molecular Devices). The excitation and emission wavelengths were 340 nm and 450 nm, respectively. Initial rates were determined from a linear fit of the data, and the inhibitor dose response curves were analyzed using normalized IC50 regression curve fitting with control based normalization.

`Cc1nc(N2CCC3(CC2)CO[C@@H](C)[C@H]3N)n2ccnc2c1-c1ccc2nccnc2c1` gave an IC50 of less than 50 nM.
